From US9492554B2, “Methods and compositions related to viral inhibition” (Clemson University Research Foundation (CURF), priority 2009, dated 2016)

What was measured:
TAR RNA = experiment: UV melting of TAR RNA in presence of ligands (Tm, ΔTm); assay type: binding, HIV-1
Experimental: The reactions were done in the presence of 10 mM sodium cacodylate, 0.5 mM EDTA, 0.1 mM MgCl2 pH 7.0. The heating rate was 0.3° C./min.
UV melting studies of TAR were performed in the presence and absence of various ligands (FIG. 13).

HIV-1 TAR RNA = HIV-1 TAR RNA competition FRET binding assay (Tat peptide probe); settings: 100 nM TAR RNA, 100 nM Tat peptide, 25° C., 60 min; Table 17
Experimental: Before used, HIV-1 TAR RNA (5′-GGC AGA UCUGAG CCU GGG AGC UCU CUG CC-3′, Thermo Scientific) in 10 μM batch in sterile water was heated to 95° C. for 4.5 min, and then cooled rapidly in ice bath for 5 min. This snap-cooling causes the RNA to adopt the kinetically favored hairpin rather than thermodynamically favored duplexes.
The relative affinity of each polyamine for HIV-1 TAR RNA was determined using Fluorescence Resonance Energy Transfer (FRET)-based competitive binding assay with a fluorescein-labeled HIV-1 Tat peptide as described in the literature. The fluorescence experiments were performed with a Spectra Max Fluorimeter (Molecular Devices) at 25° C., with excitation and emission wavelengths of 495 and 570 nm, respectively. All samples were prepared in 96 well plates in 1×TK buffer (50 mM Tris, 20 mM KCl, pH=7.4) with 0.1% Trixton-100 (Sigma).
To a solution of 100 nM HIV-1 TAR RNA and 100 nM fluorescein-labeled HIV-1 Tat peptide, appropriate concentrations (0 nM to 100 μM) of the antagonists were added at 25° C.; total volume of the incubation solution was 80 μL. After 60 min, fluorescence changes of the sample solution were determined by the Spectra Max Fluorimeter Detector.

HIVNL4-3 in MT-2 cells [1] = experiment: HIV antigen synthesis in treated cells, immunofluorescence assay (IFA); assay type: cell-based; settings: for percentage of cells positive for HIV antigens, Day 2: MT-2 cells, microM: DPA119 24, DPA52 25, DPA53 9, DPA54 17, DPA55 4, DPA56 8, DPA121 25, virus control 15%; for percentage of cells positive for HIV antigens, Day 4 / percentage of cells positive for HIV antigens, Day 6: same concentrations, virus control 100%
Experimental: (§1) Anti-HIV activities can be routinely checked by measuring the percentage of cells positive for HIV antigens using immunofluorescence assay (IFA) and for the release of pelletable reverse transcriptase (RT) into the supernatant. For these assays, 500,000 MT-2 cells in 1 ml of media were added to the wells of a 24 well tissue culture plate. Next, 0.5 ml of 4× concentrated compound was added to triplicate wells of the plate. The cells and compounds were incubated for 1 hr at 37 C. Finally, 0.5 ml of HIVNL4-3, produced in H9 cells (a CD4+ lymphoblastoid cell line), 100,000 cpm of RT activity per well, was added to each well. Virus control wells contained no compounds. This inoculum is at a multiplicity of infection less than 1. On days 2, 4, and 6, 0.75 mls of supernatants were removed and placed into individual microfuge tubes for RT assay. Next, cells were resuspended in the media and 0.5 mls of the total remaining volume was removed for IFA. Cells were combined from their triplicate infections, pelleted, and the enriched cells were air-dried onto glass slides. The dried cells were fixed in acetonemethanol (50:50). After fixing, cells were stained with HIV immunoglobulin, washed in PBS, and counter-stained with FITC-conjugated goat and human IgG. Slides were washed in PBS and the percentage of HIV-positive cells was determined by epifluorescence (Robinson et al. J Acquire Immune Defic Syndr 2:33-42, 1989).

HIVNL4-3 in MT-2 cells [2] = experiment: Release of reverse transcriptase into the culture supernatant; assay type: cell-based, HIV; settings: for Release of reverse transcriptase into the culture supernatant, Day 2: mean of triplicate infections (SD), microM: DPA119 24, DPA52 25, DPA53 9, DPA54 17, DPA55 4, DPA56 8, DPA121 25, virus control 46,029; for Release of reverse transcriptase into the culture supernatant, Day 4 / Release of reverse transcriptase into the culture supernatant, Day 6: mean of triplicate infections; for Release of reverse transcriptase into the culture supernatant, Day 4: virus control 928,112; for Release of reverse transcriptase into the culture supernatant, Day 6: virus control 1,078,741
From the text: as §1, with “The disclosed conjugates also reduce the amount of reverse transcriptase (RT) released into the cell culture supernatant upon in vitro cell culture experiments (Table 14 below). […] It is possible that even though the cells are positive for HIV, they are making much fewer unspliced transcripts, and thus the virion release into the media remains suppressed. […] Anti-HIV” for “Anti-HIV”, “On days 2, 4, and 6, 0.75 mls of supernatants were removed and placed into individual microfuge tubes for RT assay.” left out, “[…] The supernatants from each well were precipitated at 4 C overnight in a solution including 30% polyethylene glycol. After precipitation, precipitate was lysed in a solution containing Triton X100, Tris buffer, and DTT. RT activity of each aliquot was determined as incorporation of 3H-dTTP into a poly rA-oligo dT template. After a one hour assay at 37 C, the incorporated dTTP was precipitated onto a ZetaProbe (BioRad) membrane. Slots were excised and placed into liquid scintillation cocktail. After overnight incubation, counts per minute for each sample was determined on a beta counter. Results were calculated as cpm/ml of original culture supernatant (Robinson et al.” for “J Acquire Immune Defic Syndr 2:33-42, 1989).”

Row | SMILES | ΔTm (° C.) (TAR RNA; TAR RNA with ligand vs control, Table 10) [°C] | Tm (° C.) (TAR RNA; TAR RNA with ligand, control without ligand 69.3) [°C] | IC50 (HIV-1 TAR RNA) [µM] | 5% Toxicity microM (cells) [µM] | percentage of cells positive for HIV antigens, Day 2 (HIVNL4-3 in MT-2 cells [1]) | percentage of cells positive for HIV antigens, Day 4 (HIVNL4-3 in MT-2 cells [1]) [%] | percentage of cells positive for HIV antigens, Day 6 (HIVNL4-3 in MT-2 cells [1]) [%] | Release of reverse transcriptase into the culture supernatant, Day 2 (HIVNL4-3 in MT-2 cells [2]) | Release of reverse transcriptase into the culture supernatant, Day 4 (HIVNL4-3 in MT-2 cells [2]) | Release of reverse transcriptase into the culture supernatant, Day 6 (HIVNL4-3 in MT-2 cells [2])
1 | CN1CCN(c2ccc3nc(-c4ccc(OCc5cn(CCCCCCn6cc(CCCCc7cn(C[C@H]8OC(OC9C(O)[C@H](N)CC(N)[C@H]9O[C@H]9OC(CN)[C@@H](O)C(O)C9N)C(O)C8O[C@H]8OC(CN)[C@@H](O)C(O)C8N)nn7)nn6)nn5)cc4)[nH]c3c2)CC1 (some centres unmarked) [DPA115] | 4.1 | 73.4 | 99.4 ± 21 | – | – | – | – | – | – | –
2 | NCC1O[C@H](OC2C(N)C[C@@H](N)C(O)[C@H]2O[C@@H]2O[C@H](Cn3cc(CCCc4cn(C[C@H]5O[C@@H](O[C@H]6C(O[C@H]7OC(CN)C(O)[C@H](O)C7N)C(N)C[C@@H](N)C6O)[C@@H](O)C5O[C@H]5O[C@@H](CN)C(O)C(O)C5N)nn4)nn3)C(O[C@H]3O[C@@H](CN)C(O)C(O)C3N)[C@@H]2O)C(N)[C@@H](O)C1O (some centres unmarked) [DPA 52] | – | – | – | >138 | 15% | 100 | 100 | 21,485 (4,574) cpm/ml | 347,845 cpm/ml | 268,357 cpm/ml
3 | NCC1O[C@H](OC2C(N)C[C@@H](N)C(O)[C@H]2O[C@@H]2O[C@H](Cn3cc(-c4ccc(-c5cn(C[C@H]6O[C@@H](O[C@H]7C(O[C@H]8OC(CN)C(O)[C@H](O)C8N)C(N)C[C@@H](N)C7O)[C@@H](O)C6O[C@H]6O[C@@H](CN)C(O)C(O)C6N)nn5)cc4)nn3)C(O[C@H]3O[C@@H](CN)C(O)C(O)C3N)[C@@H]2O)C(N)[C@@H](O)C1O (some centres unmarked) [DPA 53] | – | – | – | 17 | 2% | 40 | 100 | 8,880 (1,373) cpm/ml | 45,539 cpm/ml | 221,445 cpm/ml
4 | NCC1O[C@H](OC2C(N)C[C@@H](N)C(O)[C@H]2O[C@@H]2O[C@H](Cn3cc(CCCCc4cn(C[C@H]5O[C@@H](O[C@H]6C(O[C@H]7OC(CN)C(O)[C@H](O)C7N)C(N)C[C@@H](N)C6O)[C@@H](O)C5O[C@H]5O[C@@H](CN)C(O)C(O)C5N)nn4)nn3)C(O[C@H]3O[C@@H](CN)C(O)C(O)C3N)[C@@H]2O)C(N)[C@@H](O)C1O (some centres unmarked) [DPA 54] | – | – | – | 69 | 3-5% | 80 | 100 | 14,805 (1,309) cpm/ml | 165,301 cpm/ml | 427,475 cpm/ml
5 | C/C(CCc1cn(C[C@H]2O[C@@H](O[C@H]3C(O[C@H]4OC(CN)C(O)[C@H](O)C4N)C(N)C[C@@H](N)C3O)[C@@H](O)C2O[C@H]2O[C@@H](CN)C(O)C(O)C2N)nn1)=C(/C)CCc1cn(C[C@H]2O[C@@H](O[C@H]3C(O[C@H]4OC(CN)C(O)[C@H](O)C4N)C(N)C[C@@H](N)C3O)[C@@H](O)C2O[C@H]2O[C@@H](CN)C(O)C(O)C2N)nn1 (some centres unmarked) [DPA 55] | – | – | – | 8 | 3-5% | 30 | 100 | 20,072 (3,748) cpm/ml | 107,933 cpm/ml | 305,277 cpm/ml
6 | NCC1O[C@H](OC2C(N)C[C@@H](N)C(O)[C@H]2O[C@@H]2O[C@H](Cn3cc(CCCCCCc4cn(C[C@H]5O[C@@H](O[C@H]6C(O[C@H]7OC(CN)C(O)[C@H](O)C7N)C(N)C[C@@H](N)C6O)[C@@H](O)C5O[C@H]5O[C@@H](CN)C(O)C(O)C5N)nn4)nn3)C(O[C@H]3O[C@@H](CN)C(O)C(O)C3N)[C@@H]2O)C(N)[C@@H](O)C1O (some centres unmarked) [DPA 56] | – | – | – | 34 | 5-7% | 40 | 100 | 15,989 (2,523) cpm/ml | 105,704 cpm/ml | 412,475 cpm/ml
